Reference: patent publication US20220274987A1, “PYRAZINO [1,2-B]QUINAZOLINE-3,6-DIONES DERIVATIVES, THEIR PRODUCTION AND USES THEREOF” (CIIMAR -CENTRO INTERDISCIPLINAR DE INVESTIGAÇÃO MARINHA E …, priority 2019, published 2022)
In brackets after ≈: the same amount, converted by molar mass. Read-outs that look alike come from different tables or passages of the source.

How the values were obtained:
[1] = tested on: hemozoin (β-hematin); assay: Inhibition of polymerization of hemozoin (β-hematin) in vitro; settings: 12 and 16 at 48.0, 24.0, 12.0 μM; 31 at 96.0, 48.0, 24.0 μM; 24 h
[2] = tested on: healthy/non-parasitized erythrocytes; assay: Hemotoxicity in vitro (hemolysis assay); type: cell-based, human; settings: at ≤10 μM
Experimental: In an embodiment, the evaluation of hemotoxicity in vitro was performed as follows. The in vitro hemolysis assay evaluates the release of hemoglobin in the medium (as an indicator of lysis of erythrocytes) after exposure to the test compounds.
In the present disclosure, the evaluation of hemotoxicity in vitro was performed as follows. In a 96-flat bottom plate 3% HTC, 20 μL of 20% Triton X-100, and 20 μL of PBS or RPMIc in 2% DMSO was added. Compounds were tested in a 1:4 serial dilution in concentrations ranging from 10 μM to 0.04 μM. After the incubation of 60 minutes, the plate was centrifuged at 2000 rpm for 5 minutes. 100 mL of Supernatant was transferred to a flat bottom plate. The absorbance reading was made at 450 nm in a Mode (Triad, Dynex Technologies). Two independent tests were carried out in triplicate. The results are presented in the form of a percentage of hemolysis-% hemolysis, obtained by the following formula; % Hemolysis=ABS (sample)/abs (C+)×100. Whereas C+ is a Triton x-100 to 20% solution RPMIc.

[3] = tested on: Plasmodium falciparum 3D7 strain; assay: In vitro susceptibility assay of P. falciparum, SYBR Green I; type: cell-based; settings: for antimalarial activity (in words): P. falciparum 3D7; for IC50: Plasmodium falciparum
Experimental: The principle of the in vitro susceptibility test to malaria is to assess the degree of development of parasites P. falciparum in the presence of different concentrations of the compounds.
In the present disclosure, the antimalarial activity was also evaluated. Each compound was lyophilized and solubilized in DMSO (Sigma-Aldrich) to obtain a final concentration of 5 mM. Some intermediate dilutions were made to achieve the final concentration of 10 μM in the first well of the plate.
In an embodiment, the culture of P. falciparum was carried out as follows. […] Parasites were cultivated at 5% hematocrit, 37° C. and atmosphere with 5% of CO2, human serum was replaced with 0.5% AlbuMAXII (Invitrogen™) in the culture medium. Synchronized cultures were obtained by treatments with a 5% (m/v) solution of D-sorbitol (Sigma-Aldrich).
In the present disclosure, the in vitro susceptibility assay of P. falciparum using SYBR Green I was carried out as follows. […] Briefly, early ring stage parasites (>80% of rings, 3% haematocrit and 1% parasitaemia) were tested in duplicate in a 96-well plate and incubated with the compounds for 48 h (37° C., 5% CO2), parasite growth was assessed with SYBR Green I (Thermo Fisher Scientific). Each compound was tested in concentrations ranging from 10 to 0.001 μM. Fluorescence intensity was measured with a microplate reader with excitation and emission wavelengths of 485 and 535 nm, respectively, and analysed by nonlinear regression using GraphPad Prism 5 demo version to determine

[4] = tested on: V79 cells; settings: for DL50: 24 h; for SI (Selectivity Index): calculated by LD50/IC50 (V79 / P. falciparum 3D7)
Experimental: In the present disclosure, the cytotoxicity in vitro against mammalian cell was carried out as follows. Cytotoxicity was assessed on the mammalian cell line V79 (Chinese hamster lung), using an MTT based assay, as previously described [38B]. Tests were conducted in triplicate for each compound, at a range of concentrations (800 μM to 0.0512 μM), and with culture media containing 0.5% DMSO (no drug control); incubation time 24 h. Absorbance was read at 570 nm on a multi-mode microplate reader to produce a log dose-dependence curve. The LD50 value for each compound was estimated by non-linear interpolation of the dose-dependence curve (GraphPad Software).

[5] = tested on: S. aureus 66/1 (MRSA); assay: MIC/MBC broth dilution (CLSI), MRSA; type: cell-based; settings: Staphylococcus aureus
Description: (§1) In the present disclosure, two Gram-positive—Staphylococcus aureus ATCC 29213 and Enterococcus faecalis ATCC […] and two Gram-negative—Escherichia coli ATCC 25922 and Pseudomonas aeruginosa ATCC 27853—reference bacterial strains were used. When it was possible to determine a minimal inhibitory concentration (MIC) value for these strains, clinically relevant strains were also used. These included methicillin-resistant S. uareus (MRSA) 66/1, isolated from public buses, as well as a isolate sensitive to the most commonly used antibiotic families (S. aureus 40/61/24) and two vancomycin-resistant Enterococcus (VRE) strains isolated from river water, E. faecalis B3/101 and E. faecalis A5/102, which is sensitive to ampicillin. Frozen stocks of all strains were grown on Mueller-Hinton agar (MH-BioKar Diagnostics, Allone, France) at 37° C. for 24 h. All bacterial strains were sub-cultured on MH agar and incubated overnight at 37° C. before each assay, in order to obtain fresh cultures.
(§2) An initial screening of the antibacterial activity of the compounds was performed by the Kirby-Bauer disk diffusion method, as recommended by the Clinical and Laboratory Standards institute (CLSI). Briefly, sterile 6 mm blank paper disks (Oxoid, Basingstoke, England) impregnated with 15 μg of each compound were placed on inoculated MH agar plates. A blank disk with DMSO was used as a negative control. MH inoculated plates were incubated for 18-20 hours at 37° C. At the end of the incubation, the inhibition halos where measured. The minimal inhibitory concentration (MIC) was used to determine the antibacterial activity of each compound, in accordance with the recommendations of the CLSI. Two-fold serial dilutions of the compounds were prepared in Mueller-Hinton Broth 2 (MHB2-Sigma-Aldrich, St. Louis, Mo., USA) within the concentration range of 0.062-64 μg/mL. Cefotaxime (CTX) ranging between 0.031-16 μg/mL was used as a control. Sterility and growth controls were included in each assay. Purity check and colony counts of the inoculum suspensions were also performed in order to ensure that the final inoculum density closely approximates the intended number ([…]). The MIC was determined as the lowest concentration at which no visible growth was observed. The minimal bactericidal concentration (MBC) was assessed by spreading 10 μL of culture collected from wells showing no visible growth on MH agar plates. The MBC was determined as the lowest concentration at which no colonies grew after 16-18 hours incubation at 37° C. These assays were performed in duplicate.

[6] = tested on: Staphylococcus aureus ATCC 29213; assay: MIC/MBC broth dilution (CLSI), S. aureus reference strain; type: cell-based; settings: S. aureus ATCC 29213
Description: as §1, §2

[7] = tested on: E. faecalis ATCC 29212; assay: MIC/MBC broth dilution (CLSI), E. faecalis reference strain; type: cell-based, Enterococcus faecalis; settings: Enterococcus faecalis
Description: as §1, §2

[8] = tested on: S. aureus 40/61/24; assay: MIC/MBC broth dilution (CLSI), sensitive clinical isolate; type: cell-based; settings: Staphylococcus aureus
Description: as §1, §2

[9] = tested on: hemozoin; settings: trophozoite stage; cited from earlier work
[10] = tested on: P. falciparum 3D7 strain; settings: cited from earlier work
[11] = tested on: Staphylococcus aureus; settings: cited from earlier work
[12] = tested on: Enterococcus faecalis; settings: cited from earlier work
[13] = tested on: Vibrio harvevi; settings: cited from earlier work
[14] = P. falciparum (3D7), 48 h, read-out: IC50

With `CC(C)[C@@H]1NC(=O)[C@@H](Cc2c[nH]c3ccccc23)n2c1nc1ccccc1c2=O` [Compound 12, fiscalin B] the “inhibition of the polymerization of β-hematin in vitro (in words)” value (from here on “inhibition of the polymerization … (in words)”) [1] was “did not show to inhibit”, the “hemolytic activity (in words)” value [2] was “no hemolytic activity” and the “antimalarial activity (in words)” value [3] was “highest antimalarial activity”. For the same compound, the IC50 [3, 14] was 100 ± 20 nM, the DL50 ([4]; Chinese hamster) was 1.91 ± 0.44 µM and the “SI (Selectivity Index)” value [4] was 19.

In the case of `CC(C)C[C@@H]1NC(=O)[C@@H](Cc2c[nH]c3ccccc23)n2c1nc1ccccc1c2=O` [Compound 16], the “inhibition of the polymerization … (in words)” value [1] is reported as “did not show to inhibit”, the “hemolytic activity (in words)” value [2] is reported as “no hemolytic activity” and the “antimalarial activity (in words)” value [3] is reported as “highest antimalarial activity”. For the same compound, the IC50 [3, 14] was 50 ± 20 nM, the DL50 ([4]; Chinese hamster) was 1.78 ± 0.47 µM and the “SI (Selectivity Index)” value [4] was 34.

With `CC(C)C[C@@H]1NC(=O)[C@@H](Cc2c[nH]c3ccccc23)n2c1nc1c(Cl)cc(Cl)cc1c2=O` [Compound 31, (1S, 4R)-4-((1H-indol-3-yl)methyl)-8,10-dichloro-1-isobutyl-1,2-dihydro-6H-pyrazino[2,1-b]quinazoline-3,6(4H)-dione] the “inhibition of the polymerization … (in words)” value [1] was “did not show to inhibit”, the MBC [5] was > 64 µg/mL and the MIC [5] was 8 µg/mL (≈ 17 µM). The “antibacterial (inhibitory) effect (in words)” value [6] was “inhibitory effect”, the MBC ([6]; Staphylococcus aureus, ATCC29213) was > 64 µg/mL and the MIC ([6]; Staphylococcus aureus, ATCC29213, read-out: MIC) was 4 µg/mL (≈ 8.52 µM). For the same compound, the MBC ([7]; ATCC29212) was > 64 µg/mL, the MIC ([7]; ATCC29212, read-out: MIC) was > 64 µg/mL and the “hemolytic activity (in words)” value [2] was “no hemolytic activity”. The “antimalarial activity (in words)” value [3] was “highest antimalarial activity”, the IC50 ([3]; 3D7, 48 h) was 200 nM and the DL50 ([4]; Mammalian cells (V79), MTT) was 14.00 ± 1.41 µM. For the same compound, the MIC ([8]; 40/61/24) was 8 µg/mL (≈ 17 µM) and the MBC ([8]; S. aureus 40/61/24) was > 64 µg/mL.

For `O=C(C[C@H]1NCCC[C@@H]1O)Cn1cnc2ccccc2c1=O` [Febrifugine (9, FF), febrifugine], the “inhibition of the formation of hemozoin (in words)” value [9] is given as “significantly inhibits”.

In the case of `Clc1ccc2nccc(N3CCC(CN4CCC(c5c[nH]c6ccccc56)CC4)CC3)c2c1` [TCMDC-134281 (8), TCMDC-134281], the EC50 [10] is given as 34 nM.

In the case of `CC(C)[C@@H]1NC(=O)[C@@H](C[C@]2(O)c3ccccc3N3C(=O)[C@@H](C)N[C@H]32)n2c1nc1ccccc1c2=O` [neofiscalin A (2), neofiscalin A], the MIC [11] is given as 8 µg/mL (≈ 16.9 µM) and the MIC [12] is given as 8 µg/mL (≈ 16.9 µM).

In the case of glyantypine [glyantypine (1)], the MIC [13] is given as 32 µg/mL.
